Measurements reported in PubChem BioAssay (NCI).
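All cell lines were grown in 96-well plates and treated with compound for 48 hours. Abbreviation: GI50, concentration required for 50% inhibition of growth. TGI: concentration producing complete growth inhibition.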

Assays:
Test in all cases: DTP human tumour cell line panel, 48 h
SK-MEL-28 melanoma = test system: SK-MEL-28 melanoma
SNB-75 CNS = test system: SNB-75 CNS
HT29 colon = test system: HT29 colon
IGROV1 ovarian = test system: IGROV1 ovarian
SK-OV-3 ovarian = test system: SK-OV-3 ovarian
BT-549 breast = test system: BT-549 breast
HS 578T breast = test system: HS 578T breast
SW-620 colon = test system: SW-620 colon
UACC-62 melanoma = test system: UACC-62 melanoma
M14 melanoma = test system: M14 melanoma

NS(=O)(=O)CC1CC[CH-]CC1.[Cl-].[Cl-].[Cl-].[Cl-].[Cl-].[Sb+5].c1ccncc1
GI50 (SK-MEL-28 melanoma): > 100 µM | TGI (SK-MEL-28 melanoma): > 100 µM | GI50 (SNB-75 CNS): > 100 µM | TGI (SNB-75 CNS): > 100 µM | GI50 (HT29 colon): > 100 µM | TGI (HT29 colon): > 100 µM | GI50 (IGROV1 ovarian): > 100 µM | TGI (IGROV1 ovarian): > 100 µM | GI50 (SK-OV-3 ovarian): > 100 µM | TGI (SK-OV-3 ovarian): > 100 µM | GI50 (BT-549 breast): > 100 µM | TGI (BT-549 breast): > 100 µM | GI50 (HS 578T breast): > 100 µM | TGI (HS 578T breast): > 100 µM | GI50 (SW-620 colon): > 100 µM | TGI (SW-620 colon): > 100 µM | GI50 (UACC-62 melanoma): > 100 µM | TGI (UACC-62 melanoma): > 100 µM | GI50 (M14 melanoma): > 100 µM | TGI (M14 melanoma): > 100 µM

CCn1c(-c2nonc2N)nc2c(C#CC(C)(C)O)ncc(OC[C@H]3CCCNC3)c21
GI50 (SK-MEL-28 melanoma): 11.7 µM | TGI (SK-MEL-28 melanoma): 27.1 µM | GI50 (SNB-75 CNS): 0.0584 µM | TGI (SNB-75 CNS): 1.54 µM | GI50 (HT29 colon): 17.5 µM | TGI (HT29 colon): 51.5 µM | GI50 (IGROV1 ovarian): 0.0876 µM | TGI (IGROV1 ovarian): 23.2 µM | GI50 (SK-OV-3 ovarian): 0.866 µM | TGI (SK-OV-3 ovarian): > 82.6 µM | GI50 (BT-549 breast): 6.85 µM | TGI (BT-549 breast): 28.6 µM | GI50 (HS 578T breast): 2.58 µM | TGI (HS 578T breast): 59.5 µM | GI50 (SW-620 colon): 11.1 µM | TGI (SW-620 colon): > 100 µM | GI50 (UACC-62 melanoma): 12.9 µM | TGI (UACC-62 melanoma): 28.2 µM | GI50 (M14 melanoma): 14.8 µM | TGI (M14 melanoma): 37.7 µM

Oc1c(Cl)cc(Cl)cc1C(c1cc(Cl)cc(Cl)c1O)C(Cl)(Cl)Cl
GI50 (SK-MEL-28 melanoma): 4.18 µM | TGI (SK-MEL-28 melanoma): 17.8 µM | GI50 (SNB-75 CNS): 3.75 µM | TGI (SNB-75 CNS): 17.4 µM | GI50 (HT29 colon): 3.03 µM | TGI (HT29 colon): 11.4 µM | GI50 (SK-OV-3 ovarian): 3.01 µM | TGI (SK-OV-3 ovarian): 13.3 µM | GI50 (BT-549 breast): 2.27 µM | TGI (BT-549 breast): 6.93 µM | GI50 (HS 578T breast): 2.28 µM | TGI (HS 578T breast): 10.4 µM | GI50 (SW-620 colon): 2.98 µM | TGI (SW-620 colon): 12.2 µM | GI50 (UACC-62 melanoma): 0.73 µM | TGI (UACC-62 melanoma): 10.6 µM | GI50 (M14 melanoma): 3.11 µM | TGI (M14 melanoma): 10.1 µM

CN(Cc1cc(Br)cc(Br)c1O)Cc1c(O)ccc2ccccc12
TGI (SK-MEL-28 melanoma): 44.2 µM | TGI (SNB-75 CNS): 39.1 µM | TGI (HT29 colon): 37.8 µM | TGI (IGROV1 ovarian): 44.6 µM | TGI (SK-OV-3 ovarian): 52 µM | TGI (BT-549 breast): 49 µM | TGI (HS 578T breast): 77.2 µM | TGI (SW-620 colon): > 100 µM | TGI (UACC-62 melanoma): 41.3 µM | TGI (M14 melanoma): 41.5 µM

C[N+](C)(C)CC(=O)N/N=C(\C(=O)NC1=C(Cl)C(=O)c2ccccc2C1=O)C(C#N)c1nc(-c2ccc([N+](=O)[O-])cc2)cs1 (stereo not given)
TGI (SK-MEL-28 melanoma): 17.6 µM | TGI (SNB-75 CNS): 19.9 µM | TGI (HT29 colon): 33.6 µM | TGI (IGROV1 ovarian): 18.4 µM | TGI (SK-OV-3 ovarian): 41.8 µM | TGI (BT-549 breast): 15.1 µM | TGI (HS 578T breast): 40.6 µM | TGI (SW-620 colon): 31.6 µM | TGI (UACC-62 melanoma): 9.27 µM | TGI (M14 melanoma): 8.65 µM

CCN(CC)C(=S)SCN1C(=O)c2ccccc2S1(=O)=O
GI50 (SK-MEL-28 melanoma): 31 µM | TGI (SK-MEL-28 melanoma): > 85.1 µM | GI50 (SNB-75 CNS): 46.7 µM | TGI (SNB-75 CNS): > 91.5 µM | GI50 (HT29 colon): 25.1 µM | TGI (HT29 colon): > 74.9 µM | GI50 (IGROV1 ovarian): 55.2 µM | TGI (IGROV1 ovarian): > 100 µM | GI50 (SK-OV-3 ovarian): > 100 µM | TGI (SK-OV-3 ovarian): > 100 µM | GI50 (BT-549 breast): 63.4 µM | TGI (BT-549 breast): > 100 µM | GI50 (HS 578T breast): > 100 µM | TGI (HS 578T breast): > 100 µM | GI50 (SW-620 colon): 43 µM | TGI (SW-620 colon): > 100 µM | GI50 (UACC-62 melanoma): 3.02 µM | GI50 (M14 melanoma): 20.9 µM | TGI (M14 melanoma): > 82.5 µM

CCCN(CCC)c1ccc(/C=N/NC(=O)c2cccnc2)c(OC)c1
GI50 (SK-MEL-28 melanoma): 26.6 µM | TGI (SK-MEL-28 melanoma): 98 µM | GI50 (SNB-75 CNS): 23.7 µM | TGI (SNB-75 CNS): 80.4 µM | GI50 (HT29 colon): 15.8 µM | TGI (HT29 colon): 55 µM | GI50 (IGROV1 ovarian): 29.3 µM | TGI (IGROV1 ovarian): > 100 µM | GI50 (SK-OV-3 ovarian): 21.6 µM | TGI (SK-OV-3 ovarian): 71.3 µM | GI50 (BT-549 breast): 28.4 µM | TGI (BT-549 breast): 84.8 µM | GI50 (HS 578T breast): 21.7 µM | TGI (HS 578T breast): 99.3 µM | GI50 (SW-620 colon): 24.5 µM | TGI (SW-620 colon): > 100 µM | GI50 (UACC-62 melanoma): 16.2 µM | TGI (UACC-62 melanoma): 45.6 µM

Clc1ccccc1CNc1c2ccccc2nc2ccccc12
GI50 (SK-MEL-28 melanoma): 2.75 µM | TGI (SK-MEL-28 melanoma): 9.21 µM | GI50 (SNB-75 CNS): 2.55 µM | TGI (SNB-75 CNS): 9.63 µM | GI50 (HT29 colon): 1.67 µM | TGI (HT29 colon): 9.02 µM | GI50 (IGROV1 ovarian): 1.88 µM | TGI (IGROV1 ovarian): 8.83 µM | GI50 (SK-OV-3 ovarian): 5.41 µM | TGI (SK-OV-3 ovarian): 12.6 µM | GI50 (BT-549 breast): 4.17 µM | TGI (BT-549 breast): 12 µM | GI50 (HS 578T breast): 5.97 µM | TGI (HS 578T breast): 18.1 µM | GI50 (SW-620 colon): 1.67 µM | TGI (SW-620 colon): 6.56 µM | GI50 (UACC-62 melanoma): 2.3 µM | TGI (UACC-62 melanoma): 9.18 µM | GI50 (M14 melanoma): 2.04 µM | TGI (M14 melanoma): 9.98 µM

CC(=O)c1c(CO[N+](=O)[O-])n([O-])c2ccccc2[n+]1=O
TGI (SK-MEL-28 melanoma): > 100 µM | TGI (SNB-75 CNS): > 100 µM | TGI (HT29 colon): > 100 µM | TGI (IGROV1 ovarian): > 100 µM | TGI (SK-OV-3 ovarian): > 100 µM | TGI (BT-549 breast): > 100 µM | TGI (HS 578T breast): > 100 µM | TGI (SW-620 colon): > 100 µM | TGI (UACC-62 melanoma): > 100 µM | TGI (M14 melanoma): > 100 µM

Cc1cc2c(C(N)=O)c(N)n(-c3c(C)ccc(O)c3C)c2nc1C
GI50 (SK-MEL-28 melanoma): 4.73 µM | TGI (SK-MEL-28 melanoma): > 100 µM | GI50 (SNB-75 CNS): 1.05 µM | TGI (SNB-75 CNS): 8.3 µM | GI50 (HT29 colon): 0.585 µM | TGI (HT29 colon): > 100 µM | GI50 (IGROV1 ovarian): 3.04 µM | TGI (IGROV1 ovarian): 12 µM | GI50 (SK-OV-3 ovarian): 12.2 µM | TGI (SK-OV-3 ovarian): 89 µM | GI50 (BT-549 breast): 3.06 µM | TGI (BT-549 breast): 16.7 µM | GI50 (HS 578T breast): 1.44 µM | TGI (HS 578T breast): 7.18 µM | GI50 (SW-620 colon): 3.17 µM | TGI (SW-620 colon): 56.4 µM | GI50 (M14 melanoma): 0.834 µM | TGI (M14 melanoma): 5.83 µM

NS(=O)(=O)c1ccc(N(/C=C/C(=O)C(F)(F)F)Cc2ccc(Cl)cc2)cc1
GI50 (SK-MEL-28 melanoma): 29.3 µM | TGI (SK-MEL-28 melanoma): > 100 µM | GI50 (SNB-75 CNS): 32.2 µM | TGI (SNB-75 CNS): 65.1 µM | GI50 (HT29 colon): 43.9 µM | TGI (HT29 colon): > 100 µM | GI50 (SK-OV-3 ovarian): 36 µM | TGI (SK-OV-3 ovarian): > 100 µM | GI50 (BT-549 breast): 23.6 µM | TGI (BT-549 breast): 62.6 µM | GI50 (HS 578T breast): 38.1 µM | TGI (HS 578T breast): > 100 µM | GI50 (SW-620 colon): 30.5 µM | TGI (SW-620 colon): > 100 µM | GI50 (UACC-62 melanoma): 20.3 µM | TGI (UACC-62 melanoma): 45.3 µM | GI50 (M14 melanoma): 21 µM | TGI (M14 melanoma): 43.4 µM

CCOC(=O)c1cc(-c2ccccc2)[nH]c1N/N=C/c1ccc(Cl)cc1
GI50 (SK-MEL-28 melanoma): > 100 µM | TGI (SK-MEL-28 melanoma): > 100 µM | GI50 (SNB-75 CNS): > 100 µM | TGI (SNB-75 CNS): > 100 µM | GI50 (HT29 colon): 37.3 µM | TGI (HT29 colon): > 100 µM | GI50 (IGROV1 ovarian): 95.2 µM | TGI (IGROV1 ovarian): > 100 µM | GI50 (SK-OV-3 ovarian): > 100 µM | TGI (SK-OV-3 ovarian): > 100 µM | GI50 (BT-549 breast): 46.8 µM | TGI (BT-549 breast): > 100 µM | GI50 (HS 578T breast): 77.7 µM | TGI (HS 578T breast): > 100 µM | GI50 (SW-620 colon): > 100 µM | TGI (SW-620 colon): > 100 µM | GI50 (UACC-62 melanoma): 49.7 µM | TGI (UACC-62 melanoma): > 100 µM

COC(=O)c1cc2c3ccccc3[nH]c2c2sccc12
GI50 (SK-MEL-28 melanoma): 40.4 µM | TGI (SK-MEL-28 melanoma): > 100 µM | GI50 (SNB-75 CNS): 19 µM | TGI (SNB-75 CNS): 70.6 µM | GI50 (HT29 colon): 6.96 µM | TGI (HT29 colon): 18.7 µM | GI50 (IGROV1 ovarian): 4.31 µM | TGI (IGROV1 ovarian): > 100 µM | GI50 (SK-OV-3 ovarian): 34.1 µM | TGI (SK-OV-3 ovarian): > 100 µM | GI50 (BT-549 breast): 20.2 µM | TGI (BT-549 breast): 57 µM | GI50 (HS 578T breast): 13.5 µM | TGI (HS 578T breast): 38.7 µM | GI50 (SW-620 colon): 35.1 µM | TGI (SW-620 colon): > 100 µM | GI50 (UACC-62 melanoma): 22.3 µM | TGI (UACC-62 melanoma): > 100 µM

C/C(=N\NC(=S)SCc1ccccc1)c1ccccn1
TGI (SNB-75 CNS): 13.7 µM | TGI (HT29 colon): 15.6 µM | TGI (IGROV1 ovarian): 30.2 µM | TGI (BT-549 breast): 6.07 µM | TGI (HS 578T breast): 26.3 µM | TGI (SW-620 colon): 9.86 µM | TGI (UACC-62 melanoma): 4.69 µM | TGI (M14 melanoma): 6.44 µM
